From US20220218852A1, “NOVEL RADIOLABELLED CXCR4-TARGETING COMPOUNDS FOR DIAGNOSIS AND THERAPY” (PROVINCIAL HEALTH SERVICES AUTHORITY, priority 2019, published 2022)
Read-outs that look alike come from different tables or passages of the source. Positions of bridges follow the written chain, without caps; N, C: chain ends. Non-standard residues stand in square brackets, D forms with d. Residues, ends and D or L forms follow the SMILES beside them. Groups on a side chain read outwards from the residue. *: point of attachment. DOTA = O=C(O)CN1CCN(CC(=O)O)CCN(CC(=O)*)CCN(CC(=O)O)CC1; 2Nal = N[C@@H](Cc1ccc2ccccc2c1)C(=O)O; Lys(iPr) = CC(C)NCCCC[C@H](N)C(=O)O

What was measured:
[1] = Biodistribution in GRANTA519 tumor-bearing mice; format: in vivo; conditions: male, NOD.Cg-Rag1^tm1MomII2rg^tm1Wjl/SzJ (NRG), mouse, iv, total radioactivity
Description: (§1) For Daudi, Z138, GRANTA519 and Jeko1 xenografts, male NOD.Cg-Rag1^tm1MomII2rg^tm1Wjl/SzJ (NRG) mice were subcutaneously inoculated on the left flank with 5×10^6 cells (100 μL; 1:1 ratio of PBS/Matrigel) and tumors were grown to a size of 200-500 mm^3. For PC-3 xenografts, male NOD.Cg-Rag1^tm1MomII2rg^tm1Wjl/SzJ (NRG) mice were subcutaneously inoculated on the left flank with 5×10^6 PC-3 cells (100 μL; 1:1 ratio of PBS/Matrigel) and tumors were grown to a size of 200-400 mm^3.
(§2) The mice were euthanized via CO2 inhalation while anesthetized with isoflurane. Tissues were harvested, washed in PBS, blotted dry, weighed, and measured on a Hidex AMG Automatic Gamma Counter.

[2] = test system: GRANTA519 mantle cell lymphoma xenografts; assay: Biodistribution in GRANTA519 tumor-bearing mice; format: in vivo
Description: as §1, §2

[3] = GRANTA519 tumour, read-out: Biodistribution GRANTA519 (tumour)
[4] = adrenals, read-out: Biodistribution Adrenals
[5] = bone, read-out: Biodistribution Bone
[6] = fat, read-out: Biodistribution Fat
[7] = intestine, read-out: Biodistribution Intestine
[8] = kidney, read-out: Biodistribution Kidney
[9] = liver, read-out: Biodistribution Liver
[10] = lung, read-out: Biodistribution Lung
[11] = muscle, read-out: Biodistribution Muscle
[12] = pancreas, read-out: Biodistribution Pancreas
[13] = spleen, read-out: Biodistribution Spleen
[14] = stomach, read-out: Biodistribution Stomach
[15] = testes, read-out: Biodistribution Testes
[16] = whole blood, read-out: Biodistribution Blood

## CC(C)NCCCC[C@@H]1NC(=O)[C@H](Cc2ccc(O)cc2)NC(=O)[C@H](Cc2ccccc2)NC(=O)CC[C@H](C(=O)N[C@@H](CCCCNC(C)C)C(=O)N[C@@H](CCCCNC(=O)[C@H](CCC(=O)O)NC(=O)[C@H](CCC(=O)O)NC(=O)[C@H](CCC(=O)O)NC(=O)CN2CCN(CC(=O)O)CCN(CC(=O)O)CCN(CC(=O)O)CC2)C(N)=O)NC(=O)CNC(=O)[C@H](Cc2ccc3ccccc3c2)NC(=O)[C@@H](CCCNC(=N)N)NC1=O [[^177Lu]Lu-BL02, metal not drawn] (FY[Lys(iPr)][dR][2Nal]G[dE][Lys(iPr)]K([Glu-Glu-Glu-DOTA])-NH2; lactam N-7)
[1]; GRANTA519 tumour, 1 h, read-out: Biodistribution GRANTA519 (tumour)
  tissue uptake at 1 h: 6.83 %ID/g
[1]; GRANTA519 tumour, 1 h blocked, read-out: Biodistribution GRANTA519 (tumour)
  tissue uptake at 1 h: 0.84 %ID/g
[1]; [3]
  tissue uptake at 4 h: 3.22 %ID/g
  tissue uptake at 24 h: 1.09 %ID/g
  tissue uptake at 72 h: 0.353 %ID/g
[1]; adrenals, 1 h, read-out: Biodistribution Adrenals
  tissue uptake at 1 h: 0.39 %ID/g
[1]; adrenals, 1 h blocked, read-out: Biodistribution Adrenals
  tissue uptake at 1 h: 0.48 %ID/g
[1]; [4]
  tissue uptake at 4 h: 0.1 %ID/g
  tissue uptake at 24 h: 0.094 %ID/g
  tissue uptake at 72 h: 0.346 %ID/g
[1]; bone, 1 h, read-out: Biodistribution Bone
  tissue uptake at 1 h: 0.24 %ID/g
[1]; [5]
  tissue uptake at 4 h: 0.09 %ID/g
  tissue uptake at 24 h: 0.09 %ID/g
  tissue uptake at 72 h: 0.061 %ID/g
[1]; bone, 1 h blocked, read-out: Biodistribution Bone
  tissue uptake at 1 h: 0.41 %ID/g
[1]; fat, 1 h, read-out: Biodistribution Fat
  tissue uptake at 1 h: 0.08 %ID/g
[1]; [6]
  tissue uptake at 4 h: 0.01 %ID/g
  tissue uptake at 24 h: 0.008 %ID/g
  tissue uptake at 72 h: 0.006 %ID/g
[1]; fat, with LY2510924 7.5 μg i.p. 15 min before radiotracer, 1 h blocked, read-out: Biodistribution Fat
  tissue uptake at 1 h: 0.16 %ID/g
[1]; heart, 1 h, read-out: Biodistribution Heart
  tissue uptake at 1 h: 0.19 %ID/g
[1]; heart, 1 h blocked, read-out: Biodistribution Heart
  tissue uptake at 1 h: 0.4 %ID/g
[1]; heart, read-out: Biodistribution Heart
  tissue uptake at 24 h: 0.034 %ID/g
[1]; intestine, 1 h, read-out: Biodistribution Intestine
  tissue uptake at 1 h: 0.28 %ID/g
[1]; intestine, 1 h blocked, read-out: Biodistribution Intestine
  tissue uptake at 1 h: 0.58 %ID/g
[1]; [7]
  tissue uptake at 24 h: 0.046 %ID/g
  tissue uptake at 72 h: 0.017 %ID/g
[1]; kidney, 1 h, read-out: Biodistribution Kidney
  tissue uptake at 1 h: 3.91 %ID/g
[1]; kidney, 1 h blocked, read-out: Biodistribution Kidney
  tissue uptake at 1 h: 8.63 %ID/g
[1]; [8]
  tissue uptake at 4 h: 2.98 %ID/g
  tissue uptake at 24 h: 1.33 %ID/g
  tissue uptake at 72 h: 0.573 %ID/g
[1]; liver, 1 h, read-out: Biodistribution Liver
  tissue uptake at 1 h: 0.96 %ID/g
[1]; [9]
  tissue uptake at 4 h: 0.87 %ID/g
  tissue uptake at 24 h: 0.635 %ID/g
  tissue uptake at 72 h: 0.413 %ID/g
[1]; liver, with LY2510924 7.5 μg i.p. 15 min before radiotracer, 1 h blocked, read-out: Biodistribution Liver
  tissue uptake at 1 h: 1.07 %ID/g
[1]; lung, 1 h, read-out: Biodistribution Lung
  tissue uptake at 1 h: 0.77 %ID/g
[1]; lung, 1 h blocked, read-out: Biodistribution Lung
  tissue uptake at 1 h: 1.16 %ID/g
[1]; [10]
  tissue uptake at 4 h: 0.27 %ID/g
  tissue uptake at 24 h: 0.117 %ID/g
  tissue uptake at 72 h: 0.06 %ID/g
[1]; muscle, 1 h, read-out: Biodistribution Muscle
  tissue uptake at 1 h: 0.13 %ID/g
[1]; muscle, 1 h blocked, read-out: Biodistribution Muscle
  tissue uptake at 1 h: 0.34 %ID/g
[1]; [11]
  tissue uptake at 4 h: 0.04 %ID/g
  tissue uptake at 24 h: 0.015 %ID/g
  tissue uptake at 72 h: 0.007 %ID/g
[1]; pancreas, 1 h, read-out: Biodistribution Pancreas
  tissue uptake at 1 h: 0.17 %ID/g
[1]; [12]
  tissue uptake at 24 h: 0.028 %ID/g
  tissue uptake at 72 h: 0.015 %ID/g
[1]; pancreas, with LY2510924 7.5 μg i.p. 15 min before radiotracer, 1 h blocked, read-out: Biodistribution Pancreas
  tissue uptake at 1 h: 0.3 %ID/g
[1]; spleen, 1 h, read-out: Biodistribution Spleen
  tissue uptake at 1 h: 0.49 %ID/g
[1]; [13]
  tissue uptake at 4 h: 0.28 %ID/g
  tissue uptake at 24 h: 0.321 %ID/g
  tissue uptake at 72 h: 0.198 %ID/g
[1]; spleen, with LY2510924 7.5 μg i.p. 15 min before radiotracer, 1 h blocked, read-out: Biodistribution Spleen
  tissue uptake at 1 h: 0.48 %ID/g
[1]; stomach, 1 h, read-out: Biodistribution Stomach
  tissue uptake at 1 h: 0.1 %ID/g
[1]; [14]
  tissue uptake at 4 h: 0.05 %ID/g
  tissue uptake at 24 h: 0.206 %ID/g
  tissue uptake at 72 h: 0.021 %ID/g
[1]; stomach, with LY2510924 7.5 μg i.p. 15 min before radiotracer, 1 h blocked, read-out: Biodistribution Stomach
  tissue uptake at 1 h: 0.19 %ID/g
[1]; testes, 1 h, read-out: Biodistribution Testes
  tissue uptake at 1 h: 0.21 %ID/g
[1]; testes, 1 h blocked, read-out: Biodistribution Testes
  tissue uptake at 1 h: 0.32 %ID/g
[1]; [15]
  tissue uptake at 24 h: 0.034 %ID/g
  tissue uptake at 72 h: 0.034 %ID/g
[1]; whole blood, 1 h, read-out: Biodistribution Blood
  tissue uptake at 1 h: 0.5 %ID/g
[1]; [16]
  tissue uptake at 4 h: 0.02 %ID/g
  tissue uptake at 24 h: 0.006 %ID/g
  tissue uptake at 72 h: 0.002 %ID/g
[1]; whole blood, with LY2510924 7.5 μg i.p. 15 min before radiotracer, 1 h blocked, read-out: Biodistribution Blood
  tissue uptake at 1 h: 1.14 %ID/g
[2]; 1 h
  Ratio Tumour:Blood: 14.18
  Ratio Tumour:Bone: 28.95
  Ratio Tumour:Liver: 7.10
  Ratio Tumour:Lung: 9.08
  Ratio Tumour:Muscle: 56.86
  Ratio Tumour:Spleen: 14.20
[2]; 1 h blocked
  Ratio Tumour:Blood: 0.77
  Ratio Tumour:Bone: 2.16
  Ratio Tumour:Liver: 0.78
  Ratio Tumour:Lung: 0.74
  Ratio Tumour:Muscle: 3.18
  Ratio Tumour:Spleen: 1.77
[2]; 4 h
  Ratio Tumour:Blood: 119.44
  Ratio Tumour:Bone: 34.26
  Ratio Tumour:Liver: 3.75
  Ratio Tumour:Lung: 12.56
  Ratio Tumour:Muscle: 90.57
  Ratio Tumour:Spleen: 11.98
[2]; 24 h
  Ratio Tumour:Blood: 206.07
  Ratio Tumour:Bone: 12.33
  Ratio Tumour:Liver: 1.72
  Ratio Tumour:Lung: 9.91
  Ratio Tumour:Muscle: 76.90
  Ratio Tumour:Spleen: 3.78
[2]; 72 h
  Ratio Tumour:Blood: 126.69
  Ratio Tumour:Bone: 5.88
  Ratio Tumour:Liver: 0.86
  Ratio Tumour:Lung: 6.60
  Ratio Tumour:Muscle: 50.64
  Ratio Tumour:Spleen: 1.53
